Conditions: intranasal 0.05% or 0.1% nasal spray; after first dose (Day 1) and last dose (Day 14); 43 subjects
Protocol: Each group started with approximately 190 subjects.
Plasma epinastine levels following intranasal administration were determined.

## NC1=NCC2c3ccccc3Cc3ccccc3N12 (stereo not shown) [epinastine, 3-amino-9,13b-dihydro-1H-dibenz-[c,-f]imidazol[1,5-a]azepine]
  Plasma concentrations of epinastine: < 1 ng/mL
